These are literature values, as cited in patent publication US5718912A, “Muscarine agonists” (Merck & Co., Inc., priority 1996, dated 1998).

Entries after “also recorded” stand apart in the source; their conditions may differ.

In the data set the test system is intraocular pressure.

In the case of `CC[C@@H]1C(=O)OC[C@@H]1Cc1cncn1C` [pilocarpine], the side effects result (pilocarpine therapy) is recorded as “miosis (decrease of pupil size); also recorded: systemic CNS effects”. Further, where the note is “topical administration”, the “effect on intraocular pressure” value was “lowers intraocular pressure by increasing outflow”.
